Test results published in PubChem BioAssay (NCI).
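Grown in 96-well plates, cells were treated for 48 hours with each compound at five concentrations. Insufficient inhibition: endpoint recorded as highest concentration tested. GI50: concentration for 50% inhibition of growth. TGI: total growth inhibition.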

How the values were obtained:
Experiment in all cases: NCI tumour cell line growth inhibition, 48 h
[1] = system: CCRF-CEM leukemia
[2] = system: RPMI-8226 leukemia
[3] = system: HL-60(TB) leukemia
[4] = system: SN12C renal
[5] = system: SK-MEL-5 melanoma
[6] = system: A549 NSCLC
[7] = system: HS 578T breast
[8] = system: UACC-62 melanoma
[9] = system: HOP-62 NSCLC
[10] = system: RXF 393 renal
[11] = system: NCI-H226 lung
[12] = system: HCT-15 colon
[13] = system: MDA-MB-435
[14] = system: SR leukemia
[15] = system: NCI-H460 lung
[16] = system: HT29 colon
[17] = system: A498 renal
[18] = system: DU-145 prostate
[19] = system: IGROV1 ovarian
[20] = system: HCT-116 colon
[21] = system: EKVX NSCLC
[22] = system: KM12 colon
[23] = system: NCI/ADR-RES ovarian
[24] = system: SF-539 CNS
[25] = system: HOP-92 NSCLC
[26] = system: COLO 205 colon
[27] = system: SF-295 CNS
[28] = system: UO-31 renal
[29] = system: PC-3 prostate
[30] = system: OVCAR-4 ovarian
[31] = system: SNB-75 CNS
[32] = system: LOX IMVI melanoma
[33] = system: SK-MEL-28 melanoma
[34] = system: T-47D breast
[35] = system: OVCAR-5 ovarian
[36] = system: BT-549 breast
[37] = system: ACHN renal
[38] = system: SW-620 colon
[39] = system: HCC-2998 colon
[40] = system: SK-OV-3 ovarian
[41] = system: OVCAR-3 ovarian
[42] = system: SK-MEL-2 melanoma
[43] = system: M14 melanoma
[44] = system: UACC-257 melanoma
[45] = system: SNB-19 CNS
[46] = system: MDA-MB-231 breast
[47] = system: MCF7 breast
[48] = system: NCI-H522 lung
[49] = system: SF-268 CNS
[50] = system: 786-0 renal
[51] = system: K-562 leukemia
[52] = system: MALME-3M melanoma
[53] = system: OVCAR-8 ovarian
[54] = system: U251 CNS
[55] = system: TK-10 renal
[56] = system: CAKI-1 renal
[57] = system: MOLT-4 leukemia

**Q.** For `CCNC(=O)N1CCc2cc(OC)c(OCCc3ccc(OC)cc3)cc2C1c1ccc(Cl)cc1C` (centres undefined), which GI50 [1] is on record?
**A.** 0.382 µM

**Q.** And the TGI [1]?
**A.** > 100 µM

**Q.** And the GI50 [2]?
**A.** 0.403 µM

**Q.** And the TGI [2]?
**A.** 3.95 µM

**Q.** What about the GI50 [3] of the same molecule?
**A.** 0.643 µM

**Q.** What about the TGI [3] of the same molecule?
**A.** 3.97 µM

**Q.** And the GI50 [4]?
**A.** 1.02 µM

**Q.** And the TGI [4]?
**A.** > 25 µM

**Q.** And the GI50 [5]?
**A.** 0.67 µM

**Q.** And the TGI [5]?
**A.** 2.31 µM

**Q.** What about the GI50 [6] of the same molecule?
**A.** 0.735 µM

**Q.** What about the TGI [6] of the same molecule?
**A.** > 100 µM

**Q.** And the GI50 [7]?
**A.** 1.7 µM

**Q.** What about the TGI [7] of the same molecule?
**A.** 8.99 µM

**Q.** And the GI50 [8]?
**A.** 0.532 µM

**Q.** What about the TGI [8] of the same molecule?
**A.** 6.44 µM

**Q.** What about the GI50 [9] of the same molecule?
**A.** 0.958 µM

**Q.** And the TGI [9]?
**A.** > 100 µM

**Q.** And the GI50 [10]?
**A.** 1.45 µM

**Q.** What about the TGI [10] of the same molecule?
**A.** > 21.6 µM

**Q.** What about the GI50 [11] of the same molecule?
**A.** 1.89 µM

**Q.** What about the TGI [11] of the same molecule?
**A.** 7.06 µM

**Q.** And the GI50 [12]?
**A.** 0.0853 µM

**Q.** What about the TGI [12] of the same molecule?
**A.** > 100 µM

**Q.** And the GI50 [13]?
**A.** 0.66 µM

**Q.** And the TGI [13]?
**A.** 5.82 µM

**Q.** What about the GI50 [14] of the same molecule?
**A.** 0.0961 µM

**Q.** What about the TGI [14] of the same molecule?
**A.** 3.3 µM

**Q.** What about the GI50 [15] of the same molecule?
**A.** 0.1 µM

**Q.** What about the TGI [15] of the same molecule?
**A.** 2.25 µM

**Q.** And the GI50 [16]?
**A.** 0.444 µM

**Q.** And the TGI [16]?
**A.** 3.14 µM

**Q.** What about the GI50 [17] of the same molecule?
**A.** 4.02 µM

**Q.** And the TGI [17]?
**A.** > 24.2 µM

**Q.** And the GI50 [18]?
**A.** 0.83 µM

**Q.** What about the TGI [18] of the same molecule?
**A.** > 100 µM

**Q.** And the GI50 [19]?
**A.** 0.607 µM

**Q.** What about the TGI [19] of the same molecule?
**A.** > 100 µM

**Q.** And the GI50 [20]?
**A.** 0.0866 µM

**Q.** And the TGI [20]?
**A.** > 100 µM

**Q.** And the GI50 [21]?
**A.** 4.09 µM

**Q.** What about the TGI [21] of the same molecule?
**A.** > 100 µM

**Q.** What about the GI50 [22] of the same molecule?
**A.** 1.38 µM

**Q.** And the TGI [22]?
**A.** > 31.4 µM

**Q.** What about the GI50 [23] of the same molecule?
**A.** 0.735 µM

**Q.** What about the TGI [23] of the same molecule?
**A.** 5.81 µM

**Q.** And the GI50 [24]?
**A.** 0.41 µM

**Q.** What about the TGI [24] of the same molecule?
**A.** 3.16 µM

**Q.** What about the GI50 [25] of the same molecule?
**A.** 1.48 µM

**Q.** What about the TGI [25] of the same molecule?
**A.** > 21.4 µM

**Q.** What about the GI50 [26] of the same molecule?
**A.** 1.02 µM

**Q.** And the TGI [26]?
**A.** 5.94 µM

**Q.** And the GI50 [27]?
**A.** 0.711 µM

**Q.** And the TGI [27]?
**A.** 12.7 µM

**Q.** What about the GI50 [28] of the same molecule?
**A.** 0.932 µM

**Q.** And the TGI [28]?
**A.** > 100 µM

**Q.** And the GI50 [29]?
**A.** 0.217 µM

**Q.** What about the TGI [29] of the same molecule?
**A.** > 100 µM

**Q.** And the GI50 [30]?
**A.** 2.58 µM

**Q.** What about the TGI [30] of the same molecule?
**A.** > 100 µM

**Q.** And the GI50 [31]?
**A.** 0.456 µM

**Q.** And the TGI [31]?
**A.** 6.3 µM

**Q.** What about the GI50 [32] of the same molecule?
**A.** 0.186 µM

**Q.** And the TGI [32]?
**A.** 1.77 µM

**Q.** What about the GI50 [33] of the same molecule?
**A.** 0.943 µM

**Q.** And the TGI [33]?
**A.** > 100 µM

**Q.** What about the GI50 [34] of the same molecule?
**A.** 1.84 µM

**Q.** What about the TGI [34] of the same molecule?
**A.** > 100 µM

**Q.** And the GI50 [35]?
**A.** 1.86 µM

**Q.** And the TGI [35]?
**A.** > 100 µM

**Q.** What about the GI50 [36] of the same molecule?
**A.** 1.06 µM

**Q.** And the TGI [36]?
**A.** 4.57 µM

**Q.** What about the GI50 [37] of the same molecule?
**A.** 0.676 µM

**Q.** What about the TGI [37] of the same molecule?
**A.** > 100 µM

**Q.** And the GI50 [38]?
**A.** 0.568 µM

**Q.** What about the TGI [38] of the same molecule?
**A.** > 100 µM

**Q.** What about the GI50 [39] of the same molecule?
**A.** 1.27 µM

**Q.** What about the TGI [39] of the same molecule?
**A.** > 33.3 µM

**Q.** What about the GI50 [40] of the same molecule?
**A.** 2.11 µM

**Q.** And the TGI [40]?
**A.** > 100 µM

**Q.** What about the GI50 [41] of the same molecule?
**A.** 1.04 µM

**Q.** What about the TGI [41] of the same molecule?
**A.** > 100 µM

**Q.** What about the GI50 [42] of the same molecule?
**A.** 3.52 µM

**Q.** And the TGI [42]?
**A.** > 23.7 µM

**Q.** What about the GI50 [43] of the same molecule?
**A.** 0.726 µM

**Q.** And the TGI [43]?
**A.** > 100 µM

**Q.** And the GI50 [44]?
**A.** 2.31 µM

**Q.** And the TGI [44]?
**A.** > 100 µM

**Q.** And the GI50 [45]?
**A.** 0.683 µM

**Q.** And the TGI [45]?
**A.** > 100 µM

**Q.** And the GI50 [46]?
**A.** 0.801 µM

**Q.** And the TGI [46]?
**A.** > 100 µM

**Q.** What about the GI50 [47] of the same molecule?
**A.** 0.422 µM

**Q.** What about the TGI [47] of the same molecule?
**A.** > 100 µM

**Q.** And the GI50 [48]?
**A.** 0.7 µM

**Q.** What about the TGI [48] of the same molecule?
**A.** 2.95 µM

**Q.** And the GI50 [49]?
**A.** 1.03 µM

**Q.** And the TGI [49]?
**A.** > 100 µM

**Q.** What about the GI50 [50] of the same molecule?
**A.** 0.421 µM

**Q.** What about the TGI [50] of the same molecule?
**A.** > 100 µM

**Q.** What about the GI50 [51] of the same molecule?
**A.** 0.0924 µM

**Q.** What about the TGI [51] of the same molecule?
**A.** > 100 µM

**Q.** What about the GI50 [52] of the same molecule?
**A.** 3.65 µM

**Q.** What about the TGI [52] of the same molecule?
**A.** > 100 µM

**Q.** What about the GI50 [53] of the same molecule?
**A.** 0.669 µM

**Q.** And the TGI [53]?
**A.** > 100 µM

**Q.** And the GI50 [54]?
**A.** 0.479 µM

**Q.** And the TGI [54]?
**A.** > 40.1 µM

**Q.** And the GI50 [55]?
**A.** 3.52 µM

**Q.** What about the TGI [55] of the same molecule?
**A.** > 100 µM

**Q.** And the GI50 [56]?
**A.** 0.736 µM

**Q.** What about the TGI [56] of the same molecule?
**A.** > 50.1 µM

**Q.** What about the GI50 [57] of the same molecule?
**A.** 0.338 µM

**Q.** What about the TGI [57] of the same molecule?
**A.** > 100 µM
